{
  "source": "patent US6313153A",
  "about": "“Compositions and methods for treating nephritis and inhibiting TGF -β related conditions using pyridylacrylamide derivatives” (Tsumura & Co., priority 1997, dated 2001)",
  "key": {"[1]": {"test_system": "TGF-β1", "test": "Glomerular TGF-β1 Expression in IgA Nephropathy in Mice (immunohistochemical staining score)", "assay_type": "in vivo, Male ddY mice", "settings": "for staining score (Index), glomerular TGF-β1: 5 weeks, Mean ± S.E.", "source_text": "Effects of the compounds of the present Invention on the Glomerular TGF-β1 Expression in IgA Nephropahty in Mice\nMale ddY mice of 9 weeks old were used, each group consisting of 5 mice. One kidney was nephrectomized from the mice on the zero week, and carbon was intravenously injected from 1 week after the nephrectomy (once per week, total three times). In Experiment 1, administration was commenced on the final day of the intravenous injection of carbon. In Experiment 2, administration was commenced after the mice were allowed to stand for 10 weeks from the intravenous injection of carbon. In both Experiments, the administration was continued for 5 weeks and then the kidney was taken, fixed with […] and embedded in paraffin. Sliced specimens were stained as TGF-β1 positive area by the immunohistochemical analysis method using TGF-β1 antibody.\nStaining was evaluated according to the Kagami et al. method (Kagami S., Border WA., Ruslahti E., Noble B.: Coordinated expression of β integrins and transforming growth factor-β induced matrix proteins in glomerulonephritis. Lab Invest 1993, 69, 68-76) and is shown as staining score (Index)."}, "[2]": {"test_system": "anti-GBM nephritic mice", "test": "anti-GBM nephritic mice: proteinuria, serum cholesterol, blood urea nitrogen and serum creatinine;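 as to Proteinuria 10th day: minus not effective plus trend double p<0.05 triple p<0.01 quadruple p<0.001 improvement vs control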;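 as to Proteinuria 5th day: minus not effective plus trend double p<0.05 triple p<0.01 quadruple p<0.001 improvement vs control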;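 as to Serum Parameter BUN (blood urea nitrogen): minus not effective plus trend double p<0.05 triple p<0.01 quadruple p<0.001 improvement vs control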;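 as to Serum Parameter S-Ch (serum cholesterol): minus not effective plus trend double p<0.05 triple p<0.01 quadruple p<0.001 improvement vs control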", "assay_type": "in vivo, BALB/c mice", "settings": "for Total Evaluation: 3 × (number of + in proteinuria) + (number of + in serum parameter); for Proteinuria 5th day: 5th day from intravenous injection of anti-GBM serum; for Proteinuria 5th day / Proteinuria 10th day / Serum Parameter BUN (blood urea nitrogen) / Serum Parameter S-Ch (serum cholesterol) / Serum Parameter S-Cr (serum creatinine): oral; for Proteinuria 10th day: 10th day from intravenous injection of anti-GBM serum; for Serum Parameter BUN (blood urea nitrogen) / Serum Parameter S-Ch (serum cholesterol) / Serum Parameter S-Cr (serum creatinine): 11th day", "protocol": "BALB/c mice (5 weeks old, purchased from Nippon Charles Liver) were quarantined and adapted for about 1 week before subjecting to experiments. These mice were divided into several groups for the experiments so that average body weights and standard deviations were almost identical in all groups. Mouse anti-GBM (glomerular basement membrane) nephritis was caused by immunizing the mice with rabbit γ-globulin (1 mg) with Freund's complete adjuvant and intravenously injecting rabbit anti-mouse GBM serum on the fifth day from the immunization. Each compound tested was forcedly orally administered via an oral sonde almost simultaneously with the intravenous injection of the anti-GBM serum. On the 5th and 10th days from the intravenous injection, urine was taken by a plastic metabolic cage and proteinuria was measured (Ohtsuka Tonein TP2). On the 11th day, blood was taken by cutting the carotid and serum cholesterol (S--Ch), blood urea nitrogen (BUN) and serum creatinine (S--Cr) were measured by Toshiba TBA-380 autoanalyzer."}, "[3]": {"test_system": "active TGF-β1", "test": "production of active TGF-β1 in glomeruli isolated from nephritic mice (ELISA)", "assay_type": "cell-based, BALB/c male mice", "settings": "Mus musculus, 10^-6 M, 48 hours, read-out: Inhibition rate (%) of production of active TGF-β1", "experimental": "(§1) BALB/c male mice were adapted in a feeding chamber for 1 week before subjecting to experiments. Nephritis was induced by subcutaneously injecting an emulsion of rabbit γ-globulin and Freund's complete adjuvant on the back in a dose amount of 1.0 mg per mouse and, after 5 days (on the zeroth day), intravenously injecting rabbit anti-mouse GBM serum in a dose amount of 0.1 ml per mouse. After 1 day from the injection of anti-serum, the glomeruli were isolated through sieves with different sizes and washed twice. Each compound to be tested (10^-6 M) was added while the solvent was added to the control groups. The glomeruli were incubated in RPMI-1640 serum-free medium for 48 hours. The amount of production of active TGF-β1 was determined by measuring the supernatant itself after the incubation for 48 hours in ELSA method. Further, the supernatant was treated with hydrochloric acid and the pH was returned with sodium hydroxide. The total amount of TGF-β1 produced in the supernatant was measured in ELISA method. The protein concentration in the medium was also measured as glomeruli protein concentration. The inhibition rate was calculated by the following equation.\n(§2) Inhibition rate (%)=100×(value of control group-value of sample)/(value of control group)"}, "[4]": {"test_system": "total TGF-β1", "test": "production of total TGF-β1 in glomeruli isolated from nephritic mice (ELISA)", "assay_type": "cell-based, BALB/c male mice", "settings": "Mus musculus, 10^-6 M, 48 hours, supernatant acid treated, read-out: Inhibition rate (%) of production of total TGF-β1", "experimental": "as §1, §2"}, "[5]": {"settings": "Experiment 2, 2.0 mg/kg, p < 0.05 vs control"}},
  "data": [
    {"compound": "CCOC(=O)COc1cccc(CCNC(=O)/C=C/c2cccnc2)c1", "note": "[Compound 99]", "values": [
      {"measurement": "glomerular TGF-β1 expression", "setting": "[1]; Experiment 1", "result": "tendency of inhibiting glomerular TGF-β1 expression"},
      {"measurement": "% inhibition of Index", "setting": "[1]; Experiment 1, 0.1 mg/kg", "result": 15, "unit": "%"},
      {"measurement": "staining score (Index), glomerular TGF-β1", "setting": "[1]; Experiment 1, 0.1 mg/kg", "result": "0.17 ± 0.04"},
      {"measurement": "% inhibition of Index", "setting": "[1]; Experiment 1, 0.5 mg/kg", "result": 35, "unit": "%"},
      {"measurement": "staining score (Index), glomerular TGF-β1", "setting": "[1]; Experiment 1, 0.5 mg/kg", "result": "0.13 ± 0.03"},
      {"measurement": "% inhibition of Index", "setting": "[1]; Experiment 1, 2.0 mg/kg", "result": 45, "unit": "%"},
      {"measurement": "staining score (Index), glomerular TGF-β1", "setting": "[1]; Experiment 1, 2.0 mg/kg", "result": "0.11 ± 0.03"},
      {"measurement": "increase of Index", "setting": "[1]; Experiment 2", "result": "significantly inhibited the increase of Index"},
      {"measurement": "% inhibition of Index", "setting": "[1]; Experiment 2, 0.1 mg/kg", "result": 29, "unit": "%"},
      {"measurement": "staining score (Index), glomerular TGF-β1", "setting": "[1]; Experiment 2, 0.1 mg/kg", "result": "0.29 ± 0.04"},
      {"measurement": "staining score (Index), glomerular TGF-β1", "setting": "[1]; [5]", "result": "0.18 ± 0.05"},
      {"measurement": "% inhibition of Index", "setting": "[1]; [5]", "result": 56, "unit": "%"},
      {"measurement": "production of TGF-β1 in vivo", "setting": "[1]; Experiments 1 and 2, conclusion", "result": "inhibiting action on the production of TGF-β1 in vivo"},
      {"measurement": "Total Evaluation", "setting": "[2]", "result": 21},
      {"measurement": "Proteinuria 5th day", "setting": "[2]", "result": "+++"},
      {"measurement": "Proteinuria 10th day", "setting": "[2]", "result": "+++"},
      {"measurement": "Serum Parameter BUN (blood urea nitrogen)", "setting": "[2]", "result": "+"},
      {"measurement": "Serum Parameter S-Ch (serum cholesterol)", "setting": "[2]", "result": "-"},
      {"measurement": "Serum Parameter S-Cr (serum creatinine)", "setting": "[2]", "result": "++"}
    ]},
    {"compound": "O=C(/C=C/c1cccnc1)NCCc1cccc(O)c1", "note": "[Compound 81, (E)-N-(3-hydroxyphenethyl)-3-(3-pyridyl)-2-propenoic acid amide]", "values": [
      {"measurement": "inhibition at 1 µM", "setting": "[3]", "result": 58, "unit": "%"},
      {"measurement": "Total Evaluation", "setting": "[2]", "result": 26},
      {"measurement": "Proteinuria 5th day", "setting": "[2]", "result": "+++"},
      {"measurement": "Proteinuria 10th day", "setting": "[2]", "result": "+++"},
      {"measurement": "Serum Parameter BUN (blood urea nitrogen)", "setting": "[2]", "result": "+++"},
      {"measurement": "Serum Parameter S-Ch (serum cholesterol)", "setting": "[2]", "result": "+++"},
      {"measurement": "Serum Parameter S-Cr (serum creatinine)", "setting": "[2]", "result": "++"}
    ]},
    {"compound": "COc1cc(CCN(C)C(=O)/C=C/c2cccnc2)ccc1O", "note": "[Compound 73]", "values": [
      {"measurement": "inhibition at 1 µM", "setting": "[3]", "result": 78, "unit": "%"},
      {"measurement": "Total Evaluation", "setting": "[2]", "result": 22},
      {"measurement": "Proteinuria 5th day", "setting": "[2]", "result": "+++"},
      {"measurement": "Proteinuria 10th day", "setting": "[2]", "result": "+++"},
      {"measurement": "Serum Parameter BUN (blood urea nitrogen)", "setting": "[2]", "result": "+"},
      {"measurement": "Serum Parameter S-Ch (serum cholesterol)", "setting": "[2]", "result": "+++"},
      {"measurement": "Serum Parameter S-Cr (serum creatinine)", "setting": "[2]", "result": "-"},
      {"measurement": "inhibition at 1 µM", "setting": "[4]", "result": 84, "unit": "%"}
    ]},
    {"compound": "O=C(O)COc1cccc(CCNC(=O)/C=C/c2cccnc2)c1", "note": "[Compound 148]", "values": [
      {"measurement": "inhibition at 1 µM", "setting": "[3]", "result": 45, "unit": "%"},
      {"measurement": "inhibition at 1 µM", "setting": "[4]", "result": 78.3, "unit": "%"}
    ]},
    {"compound": "COc1ccc(CCN(C)C(=O)/C=C/c2cccnc2)cc1OC", "note": "[Compound 84, (E)-N-(3,4-dimethoxyphenethyl)-N-methyl-3-(3-pyridyl)-2-propenoic acid amide]", "values": [
      {"measurement": "inhibition at 1 µM", "setting": "[3]", "result": 40, "unit": "%"},
      {"measurement": "Total Evaluation", "setting": "[2]", "result": 23},
      {"measurement": "Proteinuria 5th day", "setting": "[2]", "result": "+++"},
      {"measurement": "Proteinuria 10th day", "setting": "[2]", "result": "+++"},
      {"measurement": "Serum Parameter BUN (blood urea nitrogen)", "setting": "[2]", "result": "+++"},
      {"measurement": "Serum Parameter S-Ch (serum cholesterol)", "setting": "[2]", "result": "++"},
      {"measurement": "Serum Parameter S-Cr (serum creatinine)", "setting": "[2]", "result": "-"},
      {"measurement": "inhibition at 1 µM", "setting": "[4]", "result": 85, "unit": "%"}
    ]}
  ]
}
